PubChem BioAssay AID330 (DTP/NCI, 2004)
Where “and” joins values, the source holds several entries; their conditions need not be identical. Equal values may be shown once. Toxic doses and inconclusive results are not listed.

Tested on: P388 leukemia ip, CD2F1 mice, survival T/C
Assay: NCI In Vivo Anticancer Drug Screen. Data for tumor model P388 Leukemia (intraperitoneal) in CD2F1 (CDF1) mice
Details: endpoint: median survival time, higher = longer survival
How it was run: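 Mice carrying the transplanted tumor received test compound or vehicle. Survival was recorded in each group, and the value is the treated-group measurement divided by that of the vehicle-treated control group.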

[1] = dose: 50.0 mg/kg/injection, schedule: Q01DX009 (ip), vehicle: saline
[2] = dose: 100.0 mg/kg/injection, schedule: Q01DX009 (ip), vehicle: saline
[3] = dose: 200.0 mg/kg/injection, schedule: Q01DX009 (ip), vehicle: saline
[4] = dose: 60.0 mg/kg/injection, schedule: Q01DX005 (ip), vehicle: saline with Tween-80
[5] = dose: 120.0 mg/kg/injection, schedule: Q01DX005 (ip), vehicle: saline with Tween-80
[6] = dose: 50.0 mg/kg/injection, schedule: Q01DX009 (ip), vehicle: saline with Tween-80
[7] = dose: 100.0 mg/kg/injection, schedule: Q01DX009 (ip), vehicle: saline with Tween-80
[8] = dose: 100.0 mg/kg/injection, schedule: Q01DX001 (ip), vehicle: saline
[9] = dose: 200.0 mg/kg/injection, schedule: Q01DX001 (ip), vehicle: saline
[10] = dose: 400.0 mg/kg/injection, schedule: Q01DX001 (ip), vehicle: saline
[11] = dose: 60.0 mg/kg/injection, schedule: Q01DX005 (ip), vehicle: Klucel (hydroxypropylcellulose) (HPC)
[12] = dose: 120.0 mg/kg/injection, schedule: Q01DX005 (ip), vehicle: Klucel (hydroxypropylcellulose) (HPC)
[13] = dose: 240.0 mg/kg/injection, schedule: Q01DX005 (ip), vehicle: Klucel (hydroxypropylcellulose) (HPC)
[14] = dose: 50.0 mg/kg/injection, schedule: Q01DX005 (ip), vehicle: saline with Tween-80
[15] = dose: 100.0 mg/kg/injection, schedule: Q01DX005 (ip), vehicle: saline with Tween-80
[16] = dose: 25.0 mg/kg/injection, schedule: Q01DX009 (ip), vehicle: saline with Tween-80
[17] = dose: 50.0 mg/kg/injection, schedule: Q01DX009 (ip), vehicle: Klucel (hydroxypropylcellulose) (HPC)
[18] = dose: 200.0 mg/kg/injection, schedule: Q01DX009 (ip), vehicle: Klucel (hydroxypropylcellulose) (HPC)
[19] = dose: 50.0 mg/kg/injection, schedule: Q01DX005 (ip), vehicle: saline
[20] = dose: 100.0 mg/kg/injection, schedule: Q01DX005 (ip), vehicle: saline
[21] = dose: 200.0 mg/kg/injection, schedule: Q01DX005 (ip), vehicle: saline
[22] = dose: 200.0 mg/kg/injection, schedule: Q01DX005 (ip), vehicle: saline with Tween-80
[23] = dose: 200.0 mg/kg/injection, schedule: Q01DX009 (ip), vehicle: saline with Tween-80

CCOC(=O)CNC1=NCCO1
T/C [1]: 109 % of control | T/C [2]: 107 % of control | T/C [3]: 102 % of control | T/C (dose: 400.0 mg/kg/injection, schedule: Q01DX009 (ip), vehicle: saline): 106 % of control

COC(=O)c1[nH]c(=O)c(C#N)c(C(=O)OC)c1C(=O)c1ccccc1
T/C [4]: 99 % of control | T/C [5]: 99 % of control | T/C (dose: 240.0 mg/kg/injection, schedule: Q01DX005 (ip), vehicle: saline with Tween-80): 92 % of control

CCOC(=O)C(NC(N)=O)C(=O)OCC
T/C (dose: 25.0 mg/kg/injection, schedule: Q01DX009 (ip), vehicle: water): 89 % of control | T/C (dose: 50.0 mg/kg/injection, schedule: Q01DX009 (ip), vehicle: water): 99 % of control | T/C (dose: 100.0 mg/kg/injection, schedule: Q01DX009 (ip), vehicle: water): 100 % of control | T/C (dose: 200.0 mg/kg/injection, schedule: Q01DX009 (ip), vehicle: water): 105 % of control | T/C (dose: 400.0 mg/kg/injection, schedule: Q01DX009 (ip), vehicle: water): 91 % of control

CN(C)/N=C(\N)c1nnn(C)n1
T/C (dose: 50.0 mg/kg/injection, schedule: Q01DX001 (ip), vehicle: Klucel (hydroxypropylcellulose) (HPC)): 106 % of control | T/C (dose: 100.0 mg/kg/injection, schedule: Q01DX001 (ip), vehicle: Klucel (hydroxypropylcellulose) (HPC)): 101 % of control | T/C (dose: 200.0 mg/kg/injection, schedule: Q01DX001 (ip), vehicle: Klucel (hydroxypropylcellulose) (HPC)): 100 % of control

CCOC(=O)C(C#N)(CCC(=NC(C)(C)C)Nc1ccccc1C#N)CCC(=NC(C)(C)C)Nc1ccccc1C#N (stereo not drawn)
T/C [6]: 100 % of control | T/C [7]: 94 % of control

COc1ccc(C(C)c2cc3c(cc2OC)OCO3)cc1O (stereo not drawn)
T/C (dose: 50.0 mg/kg/injection, schedule: Q01DX005 (ip), vehicle: distilled water + Tween-80): 111 % of control | T/C (dose: 100.0 mg/kg/injection, schedule: Q01DX005 (ip), vehicle: distilled water + Tween-80): 102 % of control | T/C (dose: 200.0 mg/kg/injection, schedule: Q01DX005 (ip), vehicle: distilled water + Tween-80): 105 % of control

COc1ccc(-c2cnc3[nH]c(=O)[nH]c(=O)c3n2)cc1
T/C [8]: 100 % of control | T/C [9]: 97 % of control | T/C [10]: 90 % of control

c1ccc2c(c1)[nH]c1cc3ccncc3cc12
T/C (dose: 50.0 mg/kg/injection, schedule: Q04DX003 (ip), vehicle: saline with Tween-80): 94 % of control | T/C (dose: 100.0 mg/kg/injection, schedule: Q04DX003 (ip), vehicle: saline with Tween-80): 91 % of control | T/C (dose: 200.0 mg/kg/injection, schedule: Q04DX003 (ip), vehicle: saline with Tween-80): 87 % of control

Cc1[nH]cnc1CSCCN=C(N)n1[nH]cc(C)c1=O
T/C [11]: 111 % of control | T/C [12]: 100 % of control | T/C [13]: 99 % of control

O=C1CN(c2ccc(Cl)cc2)C(=O)CN1/N=C/c1ccc(O)c(O)c1
T/C [14]: 99 % of control | T/C [15]: 93 % of control

O=C1c2ccccc2C(=O)c2c1oc1c2ccc2ccccc21
T/C (dose: 12.5 mg/kg/injection, schedule: Q01DX009 (ip), vehicle: saline with Tween-80): 98 % of control | T/C [16]: 92 % of control | T/C [6]: 99 % of control | T/C [7]: 87 % of control

O=S(=O)(N/N=C/c1ccccc1)c1ccccc1
T/C (dose: 25.0 mg/kg/injection, schedule: Q01DX009 (ip), vehicle: Klucel (hydroxypropylcellulose) (HPC)): 106 % of control | T/C [17]: 97 % of control | T/C (dose: 100.0 mg/kg/injection, schedule: Q01DX009 (ip), vehicle: Klucel (hydroxypropylcellulose) (HPC)): 99 % of control | T/C [18]: 106 % of control

Cc1ccc(S(=O)(=O)OCC(O)C(O)COS(=O)(=O)c2ccc(C)cc2)cc1 (stereo not drawn)
T/C [1]: 97 % of control | T/C [2]: 102 % of control and 113 % of control | T/C [3]: 101 % of control and 95 % of control

O=S(=O)(O)C1=CC(=N/Br)/C=CC/1=N\Br
T/C [19]: 118 % of control and 119 % of control | T/C [20]: 115 % of control and 121 % of control | T/C [21]: 118 % of control and 121 % of control

Cc1nc2c([N+](=O)[O-])cccc2c2ccccc12
T/C (dose: 100.0 mg/kg/injection, schedule: Q04DX002 (ip), vehicle: Klucel (hydroxypropylcellulose) (HPC)): 94 % of control | T/C (dose: 200.0 mg/kg/injection, schedule: Q04DX002 (ip), vehicle: Klucel (hydroxypropylcellulose) (HPC)): 89 % of control | T/C (dose: 400.0 mg/kg/injection, schedule: Q04DX002 (ip), vehicle: Klucel (hydroxypropylcellulose) (HPC)): 98 % of control

CCSc1nc2ccc(Nn3nnnc3-c3ccccc3)cc2s1
T/C (dose: 1.56 mg/kg/injection, schedule: Q01DX009 (ip), vehicle: Klucel (hydroxypropylcellulose) (HPC)): 105 % of control and 94 % of control | T/C (dose: 3.12 mg/kg/injection, schedule: Q01DX009 (ip), vehicle: Klucel (hydroxypropylcellulose) (HPC)): 99 % of control and 100 % of control | T/C (dose: 6.25 mg/kg/injection, schedule: Q01DX009 (ip), vehicle: Klucel (hydroxypropylcellulose) (HPC)): 93 % of control | T/C (dose: 12.5 mg/kg/injection, schedule: Q01DX009 (ip), vehicle: Klucel (hydroxypropylcellulose) (HPC)): 89 % of control and 95 % of control | T/C [17]: 93 % of control | T/C [18]: 92 % of control

O=C(O)C(Oc1ccc(Cl)cc1Cl)C(Oc1ccc(Cl)cc1Cl)C(=O)O (stereo not drawn)
T/C [11]: 101 % of control | T/C [12]: 101 % of control | T/C [13]: 100 % of control

COC(=O)C1(OC)C(=O)NC2=C1C(=O)c1ccccc1C2=O (stereo not drawn)
T/C [14]: 94 % of control | T/C [15]: 105 % of control | T/C [22]: 106 % of control

O=C(NC1CCCCC1)C1C(=O)C(=O)N(C2CCCCC2)C1=O (stereo not drawn)
T/C [14]: 105 % of control | T/C [15]: 98 % of control

N#Cc1c(-c2ccccc2)c(-c2ccccc2)nn(CCO)c1=O
T/C (dose: 25.0 mg/kg/injection, schedule: Q04DX002 (ip), vehicle: distilled water + Tween-80): 94 % of control | T/C (dose: 50.0 mg/kg/injection, schedule: Q04DX002 (ip), vehicle: distilled water + Tween-80): 103 % of control | T/C (dose: 100.0 mg/kg/injection, schedule: Q04DX002 (ip), vehicle: distilled water + Tween-80): 108 % of control | T/C (dose: 200.0 mg/kg/injection, schedule: Q04DX002 (ip), vehicle: distilled water + Tween-80): 110 % of control

COc1nc(N)c2c3c([nH]c2c1C#N)C(C)(C)c1ccccc1N3C
T/C [6]: 96 % of control | T/C [7]: 100 % of control | T/C [23]: 94 % of control

CN(c1ccccc1)S(=O)c1ccccc1 (stereo not drawn)
T/C [16]: 94 % of control | T/C [6]: 103 % of control | T/C [7]: 110 % of control

Cn1c(-c2ccccc2)c(COC(=O)NC2CCCCC2)c(COC(=O)NC2CCCCC2)c1-c1ccc(Cl)cc1
T/C (dose: 3.13 mg/kg/injection, schedule: Q01DX009 (ip), vehicle: distilled water + Tween-80): 109 % of control | T/C (dose: 6.25 mg/kg/injection, schedule: Q01DX009 (ip), vehicle: distilled water + Tween-80): 105 % of control | T/C (dose: 50.0 mg/kg/injection, schedule: Q01DX009 (ip), vehicle: distilled water + Tween-80): 178 % of control | T/C (dose: 75.0 mg/kg/injection, schedule: Q01DX009 (ip), vehicle: distilled water + Tween-80): 175 % of control

Nc1nc(=O)n(C2CC(O)C(O)C(CO)O2)cc1F (stereo not drawn)
T/C [7]: 109 % of control | T/C [23]: 97 % of control | T/C (dose: 400.0 mg/kg/injection, schedule: Q01DX009 (ip), vehicle: saline with Tween-80): 93 % of control

COC(=O)C1(C)CCCC2(C)c3cc(OC(C)=O)c(C(C)C)cc3CCC12 (stereo not drawn)
T/C [8]: 100 % of control | T/C [9]: 106 % of control | T/C [10]: 105 % of control

O=c1c2ccccc2oc2nc3cc(Cl)ccc3n12
T/C [14]: 104 % of control | T/C [15]: 95 % of control | T/C [22]: 98 % of control

C=C1C(OC(=O)c2ccccc2)C2[C@@H](OC(=O)CC)[C@@H](C)C[C@]2(O)C(=O)[C@@H](C)/C=C/C(C)(C)C(=O)C(O)[C@H]1OC(=O)C(C)C (stereo partly drawn)
T/C [4]: 102 % of control | T/C [5]: 91 % of control

CC(/C=N/NC1=NCCN1)=N/NC1=NCCN1
T/C [19]: 102 % of control | T/C [20]: 98 % of control | T/C [21]: 99 % of control

O=C(Nc1ccccc1Cl)Oc1ccc(-c2ccccc2)cc1Br
T/C [16]: 111 % of control | T/C [6]: 121 % of control | T/C [23]: 104 % of control and 95 % of control
